Source: patent publication US20260076975A1, “TPK AGONIST AND METHOD FOR USING SAME TO TREAT NEURODEGENERATIVE DISEASES” (SHANGHAI RAISING PHARMACEUTICAL CO., LTD., priority 2022, published 2026)
Like-named read-outs stand apart in the source and are kept apart here.

Target: TPK enzyme (Homo sapiens, UniProt Q9H3S4)
Test: TPK enzyme activity test (TDP formation from thiamine and ATP, HPLC detection)
Format: biochemical
Procedure: The purpose of this example was to test the promoting effect of compounds on TPK enzyme activity and evaluate the in vitro activity of the compounds based on EC50 and Emax.
1.1) The constant-temperature water-bath shaker was pre-heated half an hour in advance at a pre-heating temperature of 37° C.
1.2) The stock solution of the compound to be tested was taken out, allowed to thaw at room temperature, and then diluted to the required concentration.
1.3) The required reagents were placed on ice to thaw.
2.1) For each reaction system, TPK enzyme solution, Tris-HCl buffer solution, and ATP solution were added. The concentration of ATP used was 1-500 mM. The above three solutions were formulated into a homogeneous mixture.
2.2) The mixture of the above three solutions was dispensed into centrifuge tubes. Then, the compound at the required concentration was added to each centrifuge tube. Finally, thiamine solution (1-100 μM) was added. After the addition of the above system was completed, the centrifuge tubes were tightly capped, inserted into a floating board, and placed in the constant-temperature water-bath shaker that had been pre-heated to 37° C. for incubation for 0.5-2.0 hours.
2.3) After the incubation was completed, perchloric acid stop solution was added and mixed well. Samples were taken into 1.5 mL centrifuge tubes and stored at −20° C.
3.1) The samples stored at −20° C. were taken out, thawed at room temperature, and then subjected to derivatization treatment. The samples were placed in centrifuge tubes, a potassium ferricyanide derivatization reagent was added, and finally phosphoric acid stop solution was added to stop the reaction.
3.2) The derivatized samples were placed in sample vials for liquid chromatography analysis, and the contents of TDP/thiamine were detected by high performance liquid chromatography. TKP enzyme activity=TDP (nM)/mg protein/min.
The effects of the compounds of the present invention on TPK enzyme activity at different concentrations were determined according to the above procedures.

[1] = promoting effect on TPK enzyme activity
[2] = promoting effect on TPK enzyme activity, calculated with the effect of DMSO on TPK enzyme activity as 100%, read-out: Emax

TPK enzyme, sequence (Q9H3S4 whole entry): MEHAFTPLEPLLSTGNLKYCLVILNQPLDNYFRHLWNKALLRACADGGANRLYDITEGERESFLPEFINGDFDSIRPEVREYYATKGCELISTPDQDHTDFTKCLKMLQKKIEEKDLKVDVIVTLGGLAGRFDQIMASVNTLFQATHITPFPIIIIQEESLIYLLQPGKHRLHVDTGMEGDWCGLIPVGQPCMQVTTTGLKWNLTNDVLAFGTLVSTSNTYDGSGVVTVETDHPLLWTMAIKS

O=C1CCc2ccc(OC#CCCN3CCN(c4cccc(Cl)c4Cl)CC3)cc2N1 [Compound 1, 7-((4-(4-(2,3-dichlorophenyl)piperazin-1-yl)but-1-yn-1-yl)oxy)-3,4-dihydroquinolin-2(1H)-one]
EC50 [1]: 1.16 µM
Emax [2]: 183%

O=C1CCc2ccc(OCCCCN3CCN(c4cccc(Cl)c4Cl)CC3)cc2N1 [Compound 2]
EC50 [1]: 0.46 µM
Emax [2]: 155%

O=C1CCc2ccc(OCCCCCCN3CCN(c4cccc(Cl)c4Cl)CC3)cc2N1 [Compound 3, 7-((6-(4-(2,3-dichlorophenyl)piperazin-1-yl)hexyl)oxy)-3,4-dihydroquinolin-2(1H)-one]
Emax [2]: 205%

O=C1CCc2ccc(OCCCCCN3CCN(c4cccc(Cl)c4Cl)CC3)cc2N1 [Compound 4, 7-((5-(4-(2,3-dichlorophenyl)piperazin-1-yl)pentyl)oxy)-3,4-dihydroquinolin-2(1H)-one]
EC50 [1]: 1.04 µM
Emax [2]: 194%

O=C1CCc2ccc(OCCCN3CCN(c4cccc(Cl)c4Cl)CC3)cc2N1 [Compound 5]
EC50 [1]: 1.2 µM
Emax [2]: 184%

O=C1CCc2ccc(OCCCCN3CCN(c4cccc(C(F)(F)F)c4)CC3)cc2N1 [Compound 6, 7-(4-(4-(3-(trifluoromethyl)phenyl)piperazin-1-yl)butoxy)-3,4-dihydroquinolin-2(1H)-one]
EC50 [1]: 1.27 µM
Emax [2]: 215%

O=C1CCc2ccc(OCCCCCN3CCN(c4cccc(C(F)(F)F)c4)CC3)cc2N1 [Compound 7, 7-((5-(4-(3-(trifluoromethyl)phenyl)piperazin-1-yl)pentyl)oxy)-3,4-dihydroquinolin-2(1H)-one]
EC50 [1]: 1.18 µM
Emax [2]: 224%

O=c1ccc2ccc(OCCCCN3CCN(c4cccc(Cl)c4Cl)CC3)cc2[nH]1 [Compound 10, 7-(4-(4-(2,3-dichlorophenyl)piperazin-1-yl)butoxy)quinolin-2(1H)-one]
EC50 [1]: 0.13 µM
Emax [2]: 183%

O=C1CCc2ccc(OCCCCN3CCC(c4cccc(Cl)c4Cl)CC3)cc2N1 [Compound 19]
EC50 [1]: 5.01 µM
Emax [2]: 196%

O=C1CCc2ccc(OCC(=O)NC3CCC(c4cccc(Cl)c4Cl)CC3)cc2N1 (stereo not shown) [Compound 21, N-(4-(2,3-dichlorophenyl)cyclohexyl)-2-((2-oxo-1,2,3,4-tetrahydroquinolin-7-yl)oxy)acetamide]
EC50 [1]: 1.06 µM
Emax [2]: 166%

O=C1NCCc2ccc(OCCCCN3CCN(c4cccc(Cl)c4Cl)CC3)cc21 [Compound 22]
EC50 [1]: 1.19 µM
Emax [2]: 167%

O=C1NCCc2ccc(OCCCCCN3CCN(c4cccc(Cl)c4Cl)CC3)cc21 [Compound 23, 7-((5-(4-(2,3-dichlorophenyl)piperazin-1-yl)pentyl)oxy)-3,4-dihydroisoquinolin-1(2H)-one]
EC50 [1]: 1.01 µM
Emax [2]: 226%

O=C1Cc2ccc(OCCCCN3CCN(c4cccc(Cl)c4Cl)CC3)cc2N1 [Compound 24, 6-(4-(4-(2,3-dichlorophenyl)piperazin-1-yl)butoxy)indolin-2-one]
Emax [2]: 189%

O=C1Cc2ccc(OCCCCN3CCN(c4cccc(C(F)(F)F)c4)CC3)cc2N1 [Compound 25, 6-(4-(4-(3-(trifluoromethyl)phenyl)piperazin-1-yl)butoxy)indolin-2-one]
EC50 [1]: 0.754 µM
Emax [2]: 138%

O=C1COc2ccc(OCCCCN3CCN(c4cccc(Cl)c4Cl)CC3)cc2N1 [Compound 26]
EC50 [1]: 1.22 µM
Emax [2]: 190%

Clc1cccc(N2CCN(CCCOc3ccc4ncsc4c3)CC2)c1Cl [Compound 28, 6-(3-(4-(2,3-dichlorophenyl)piperazin-1-yl)propoxy)benzo[d]thiazole]
EC50 [1]: 1.54 µM
Emax [2]: 185%

Clc1cccc(N2CCN(CCCCOc3ccc4ncsc4c3)CC2)c1Cl [Compound 29, 6-(4-(4-(2,3-dichlorophenyl)piperazin-1-yl)butoxy)benzo[d]thiazole]
EC50 [1]: 2.28 µM
Emax [2]: 191%

CC1(C)CCC(C)(C)c2cc(NC(=O)C=CC(=O)N3CCN(c4cccc(Cl)c4Cl)CC3)ccc21 [Compound 30, 4-(4-(2,3-dichlorophenyl)piperazin-1-yl)-4-oxo-N-(5,5,8,8-tetramethyl-5,6,7,8-tetrahydronaphthalen-2-yl)but-2-enamide]
Emax [2]: 132%

CC1(C)CCC(C)(C)c2cc(NC(=O)CCC(=O)N3CCN(c4cccc(Cl)c4Cl)CC3)ccc21 [Compound 31, 4-(4-(2,3-dichlorophenyl)piperazin-1-yl)-4-oxo-N-(5,5,8,8-tetramethyl-5,6,7,8-tetrahydronaphthalen-2-yl)butanamide]
Emax [2]: 124%

O=C1CCc2ccc(OCCN3CCN(c4nc5ccccc5s4)CC3)cc2N1 [Compound 34, 7-(2-(4-(benzo[d]thiazol-2-yl)piperazin-1-yl)ethoxy)-3,4-dihydroquinolin-2(1H)-one]
EC50 [1]: 1.3 µM
Emax [2]: 189%

O=c1ccc2ccc(OCCN3CCN(c4nc5ccccc5s4)CC3)cc2[nH]1 [Compound 35, 7-(2-(4-(benzothiazol-2-yl)piperazin-1-yl)ethoxy)quinolin-2(1H)-one]
EC50 [1]: 1.37 µM
Emax [2]: 163%

O=C1CCc2ccc(OCCCCN3CCN(c4nc5ccccc5s4)CC3)cc2N1 [Compound 36, 7-(4-(4-(benzo[d]thiazol-2-yl)piperazin-1-yl)butoxy)-3,4-dihydroquinolin-2(1H)-one]
EC50 [1]: 1.32 µM
Emax [2]: 139%

O=c1ccc2ccc(OCCCCN3CCN(c4nc5ccccc5s4)CC3)cc2[nH]1 [Compound 37, 7-(4-(4-(benzo[d]thiazol-2-yl)piperazin-1-yl)butoxy)quinolin-2(1H)-one]
EC50 [1]: 1.17 µM
Emax [2]: 224%

O=C1CCc2ccc(OCCCN3CCN(c4nc5ccccc5s4)CC3)cc2N1 [Compound 38, 7-(3-(4-(benzo[d]thiazol-2-yl)piperazin-1-yl)propoxy)-3,4-dihydroquinolin-2(1H)-one]
EC50 [1]: 1.18 µM
Emax [2]: 157%

Cc1cc2c(s1)Nc1ccccc1N=C2N1CCN(CCCOc2ccc3c(c2)NC(=O)CC3)CC1 [Compound 40, 7-(3-(4-(2-methyl-10H-benzo[b]thieno[2,3-e][1,4]diazepin-4-yl)piperazin-1-yl)propoxy)-3,4-dihydroquinolin-2(1H)-one]
Emax [2]: 122%

Cc1cc2c(s1)Nc1ccccc1N=C2N1CCN(CCCCOc2ccc3c(c2)NC(=O)CC3)CC1 [Compound 42, 7-(4-(4-(2-methyl-10H-benzo[b]thieno[2,3-e][1,4]diazepin-4-yl)piperazin-1-yl)butoxy)-3,4-dihydroquinolin-2(1H)-one]
EC50 [1]: 1 µM
Emax [2]: 170%

O=C1Cc2ccc(OCCCCN3CCN(c4nc5ccccc5s4)CC3)cc2N1 [Compound 44, 6-(4-(4-(benzo[d]thiazol-2-yl)piperazin-1-yl)butoxy)indolin-2-one]
EC50 [1]: 1.14 µM
Emax [2]: 235%

Cc1cccc(NC(=O)CSCC(=O)N2CCN(c3cc(C(F)(F)F)cc(C(F)(F)F)c3)CC2)c1 [Compound 45, 2-((2-(4-(3,5-bis(trifluoromethyl)phenyl)piperazin-1-yl)-2-oxoethyl)thio)-N-(m-tolyl)acetamide]
EC50 [1]: 1.07 µM
Emax [2]: 152%

Cc1cccc(NC(=O)CSCC(=O)N2CCN(c3cccc(Cl)c3Cl)CC2)c1 [Compound 46]
EC50 [1]: 1.31 µM
Emax [2]: 149%

COc1ccc(NC(=O)CN2CCN(c3cccc(Cl)c3Cl)CC2)cc1N [Compound 47, N-(3-amino-4-methoxyphenyl)-2-(4-(2,3-dichlorophenyl)piperazin-1-yl)acetamide]
EC50 [1]: 4.65 µM
Emax [2]: 199%

COc1ccc(NC(=O)CN2CCN(c3cccc(Cl)c3Cl)CC2)cc1N(C)C [Compound 48, 2-(4-(2,3-dichlorophenyl)piperazin-1-yl)-N-(3-(dimethylamino)-4-methoxyphenyl)acetamide]
EC50 [1]: 3.8 µM
Emax [2]: 156%

CNc1cc(NC(=O)CCN2CCN(c3cccc(Cl)c3Cl)CC2)ccc1OC [Compound 50, 3-(4-(2,3-dichlorophenyl)piperazin-1-yl)-N-(4-methoxy-3-(methylamino)phenyl)propanamide]
Emax [2]: 128%

O=C(NCCCCN1CCN(c2cc(C(F)(F)F)cc(C(F)(F)F)c2)CC1)c1ccc(Cl)cc1 [Compound 53, N-(4-(4-(3,5-bis(trifluoromethyl)phenyl)piperazin-1-yl)butyl)-4-chlorobenzamide]
Emax: 133%

O=C(/C=C/c1cc(O)c(O)c(O)c1)N1CCN(c2cccc(Cl)c2Cl)CC1 [Compound 55, (E)-1-(4-(2,3-dichlorophenyl)piperazin-1-yl)-3-(3,4,5-trihydroxyphenyl)prop-2-en-1-one]
Emax [2]: 134%

O=C(/C=C/c1ccc(O)c(O)c1)N1CCN(c2cccc(Cl)c2Cl)CC1 [Compound 56]
Emax [2]: 180%

COc1cc(/C=C/C(=O)N2CCN(c3cccc(Cl)c3Cl)CC2)cc(OC)c1OC [Compound 57]
Emax [2]: 135%

COc1ccc(/C=C/C(=O)N2CCN(c3cccc(Cl)c3Cl)CC2)cc1OC [Compound 58]
EC50 [1]: 1.2 µM
Emax [2]: 223%
